Experimental data reported in patent US5902817A, “Certain sulfoxide and sulfone derivatives” (priority 1997, dated 1999).
Where two headings read alike, the source gives them in different places. Where a SMILES comes first, the peptide text is derived from it.

Key:
[1] = In Vivo Toxicity of NAALADase Inhibitors (survival of mice); details: mouse, injected, read-out: Survival Rate After 5 days
Excerpt: The mice were subsequently observed two times per day for 5 consecutive days.

cortical cell cultures = test: In Vitro Toxicity of NAAG following Treatment with NAALADase Inhibitors (LDH release); assay type: cell-based, rat (Harlan Sprague Dawley); details: inhibitor 1 μM; NAAG 3 μM, n = 1
Protocol: Experiments are performed after 21 days in cultures.
At the end of exposure, the cells are washed once with HEPES buffered saline solution and then replaced with serum free modified Earle's basal medium. The cultures are then returned to the CO2 incubator for 24 hour recovery.
This control measurement is subtracted from each experimental point.

[2] = test system: injury to the cortex in rats following middle cerebral artery occlusion; details: n = 10
Excerpt: A colony of SHRSP rats is bred at Johns Hopkins School of Medicine from three pairs of male and female rats obtained from the National Institutes of Health (Laboratory, Sciences Section, Veterinary Resources Program, National Center for Research Resources, Bethesda, Md.). All rats are kept in a virus-free environment and maintained on regular diet (NIH 31, Zeigler Bros, Inc.) with water ad libitum. All groups of rats are allowed to eat and drink water until the morning of the experiment. […]
Arterial pH and PaCO2, and partial pressure of oxygen (PaO2) are measured with a self-calibrating Radiometer electrode system (ABL 3; Copenhagen, Denmark). Hemoglobin and arterial oxygen content are measured with a hemoximeter (Radiometer, Model OSM3; Copenhagen, Denmark). Blood glucose is measured with a glucose analyzer (model 2300A, Yellow Springs Instruments, Yellow Springs, Ohio).
Each group is exposed to 2 hours of right MCA occlusion and 22 hours of reperfusion. All variables but the rectal temperature are measured at baseline, at 15 minutes and 45 minutes of right MCA occlusion. The rectal temperature is measured at baseline, at 0 and 15 min of MCA occlusion, and at 0 and 22 hours of reperfusion.

LNCAP cells = details: 7 days, mean +/- SEM
Protocol: On the 7th day, the cells are pulsed with 3H-thymidine for 4 hours, harvested and measured for radioactivity. Values represent means +/- SEM of 6 separate cell wells for each treatment. All experiments are performed at least twice.
LNCAP cells are obtained from Dr. William Nelson at the Johns Hopkins School of Medicine in Baltimore, Md. […] Cells are grown in RPMI-1640 media supplemented with 5% heat-inactivated fetal calf serum, 2 mM-glutamine, 100 units/ml penicillin, and 100 μg/ml streptomycin (Paragon) in a humidified incubator at 37° C. in a 5% CO2 /95% air atmosphere.
The cells are suspended at 1×10^3 cells/ml in RPMI-1640 media and seeded into 24-well plates at 500 μl per well. […] On days 3, 5 and 7, media and drug are refreshed. On the 8th day following seeding, each well is pulsed with 1 μCi ^3 H-thymidine (New England Nuclear) for 4 hours. Media is then removed and the wells washed 2 times with phosphate buffered saline (pH=7.4). […] 5 ml UltimaGold (Packard) scintillation cocktail is added and radioactivity is quantitated using a Beckman LS6001 scintillation counter.

NAALADase [3] = target: T1, NAALADase (Rattus norvegicus, UniProt P70627); test: In Vitro Assay of NAALADase Activity ([3H]Glu liberated from [3H]NAAG, synaptosomal protein); assay type: biochemical; set-up: of synaptosomal protein; from tissue; host or cells: synaptosomal protein (brain tissue; rat by inference)
T1 sequence (P70627 whole entry): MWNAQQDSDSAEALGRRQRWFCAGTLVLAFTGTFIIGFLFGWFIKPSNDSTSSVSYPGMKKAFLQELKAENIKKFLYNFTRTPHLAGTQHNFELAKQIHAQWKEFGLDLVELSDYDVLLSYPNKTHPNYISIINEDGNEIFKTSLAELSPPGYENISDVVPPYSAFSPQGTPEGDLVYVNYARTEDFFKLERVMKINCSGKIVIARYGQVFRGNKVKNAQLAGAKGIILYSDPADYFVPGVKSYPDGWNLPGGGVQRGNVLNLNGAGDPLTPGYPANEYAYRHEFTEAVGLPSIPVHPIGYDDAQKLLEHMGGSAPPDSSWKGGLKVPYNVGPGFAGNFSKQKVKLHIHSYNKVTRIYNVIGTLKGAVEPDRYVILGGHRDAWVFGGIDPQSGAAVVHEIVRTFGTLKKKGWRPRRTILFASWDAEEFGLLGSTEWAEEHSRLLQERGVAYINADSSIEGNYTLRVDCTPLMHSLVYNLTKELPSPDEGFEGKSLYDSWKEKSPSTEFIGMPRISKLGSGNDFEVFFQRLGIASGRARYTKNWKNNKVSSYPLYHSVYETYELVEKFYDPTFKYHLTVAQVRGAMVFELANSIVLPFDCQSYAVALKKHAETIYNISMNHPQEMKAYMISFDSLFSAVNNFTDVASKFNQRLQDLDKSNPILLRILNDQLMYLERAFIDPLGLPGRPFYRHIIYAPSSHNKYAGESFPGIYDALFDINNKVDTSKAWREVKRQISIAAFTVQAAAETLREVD
Protocol: Substrate and product were resolved by anion-exchange liquid chromatography. […] Quisqualate (100 μM) was included in parallel assay tubes to confirm the specificity of the measurements.

NAALADase [4] = target: T1, NAALADase; details: substrate NAAG; cited from earlier work

Row | Structure (SMILES) | survival at 120 h ([1]; 1 mg/kg) [%] | survival at 120 h ([1]; 5 mg/kg) [%] | survival at 120 h ([1]; 10 mg/kg) [%] | survival at 120 h ([1]; 30 mg/kg) [%] | survival at 120 h ([1]; 100 mg/kg) [%] | survival at 120 h ([1]; 300 mg/kg) [%] | survival at 120 h ([1]; 500 mg/kg) [%] | % Toxicity (cortical cell cultures) [%] | Cortical Injury Volume ± S.E.M. ([2]; 10 mg/kg followed by 2 mg/kg/hr for 1 hour) [mm^3] | Cortical Injury Volume ± S.E.M. ([2]; 100 mg/kg followed by 20 mg/kg/hr for one hour) [mm^3] | 3H-Thymidine Incorporation (LNCAP cells; dose 10 pM) [dpm/well] | 3H-Thymidine Incorporation (LNCAP cells; dose 100 pM) [dpm/well] | 3H-Thymidine Incorporation (LNCAP cells; dose 1 nM) [dpm/well] | 3H-Thymidine Incorporation (LNCAP cells; dose 10 nM) [dpm/well] | NAALADase inhibiting activity (in words) (NAALADase [3]) | Km (NAALADase [4]) [µM]
1 | O=C(O)CCC(CP(=O)(O)O)C(=O)O (centres unmarked) [2-(phosphonomethyl)pentanedioic acid] | 100 | 100 | 100 | 100 | 100 | 100 | 66.7 | -4.71 | 135.00 ± 32.18 | 65.23 ± 32.18 | 3078 ± 1006 | 2062 ± 595 | 1001 ± 52 | 664 ± 366 | high NAALADase inhibiting activity | –
2 | O=C(O)CCC(CP(=O)(O)CCC(=O)O)C(=O)O (centres unmarked) [2-[[2-carboxyethyl)hydroxyphosphinol]methyl]pentanedioic acid] | – | – | – | – | – | – | – | – | – | – | – | – | – | – | lower NAALADase inhibiting activity than 2-(phosphonomethyl)pentanedioic acid | –
3 | CC(=O)N[C@@H](CC(=O)O)C(=O)N[C@@H](CCC(=O)O)C(=O)O [NAAG, N-acetyl-aspartyl-glutamate] (Ac-Asp-Glu-OH) | – | – | – | – | – | – | – | – | – | – | – | – | – | – | – | 0.54
